Columns and labels:
[1] = cancer survivors exposed to >250 mg/m2 doxorubicin vs. non-exposed; cited from earlier work
[2] = system: C57BL/6J male mice; conditions: mouse, in vivo
Experimental: Recombinant human GDF15/MIC-1 protein (CHO-derived) was purchased from PeproTech Inc. (Cranbury, USA) and described in Example 1. […] For in vitro studies, solid lyophilized powder of these two drugs were solubilized at the recommended concentrations in sterile water, and separate aliquots were made and frozen until thawing prior to addition to cell cultures. For in vivo studies, all agents were dissolved in […] normal saline according to the required concentrations (doxorubicin, 5 mg/kg; GDF15, 0.5 mg/kg; dexrazoxane, […]), and the final volume of each intraperitoneal injection was 100 μl. The recommended dose ratio of dexrazoxane to doxorubicin was 10 to 1. In the following examples, 5 mg/kg of doxorubicin was used which correspond to 50 mg/kg of dexrazoxane. The FDA recommends that dexrazoxane be injected within 0.5 hour prior to doxorubicin infusion in individuals. This was followed in the same manner when applying to the test animals.
The body weight of each mouse was recorded weekly, before each doxorubicin injection and before sacrifice. At the end of experiment, all mice were euthanized with sodium pentobarbital 100 mg/kg administered intraperitoneally, and the hearts were excised immediately. The tibia of the mice were carefully dissected and its length was measured. […]

[3] = system: hESC-CMs; assay: PrestoBlue cell viability analysis of hESC-CMs exposed to doxorubicin; type: cell-based, human; conditions: for optimal timing of pretreatment prior to doxorubicin: 1, 6, 24, 48, 72 h tested, doxorubicin 1.5 μM for 24 h
Experimental: Viability of hESC-CMs was assessed using PrestoBlue (Thermo Fisher Scientific, USA). hESC-CMs in suspension were seeded at a density of 15,000 cells per well on 96-well flat-bottom microtiter plates and cultured at 37° C. in a humidified 5% CO2 atmosphere. The B27+/RPMI-1640 media with Y27632 were changed to B27+/RPMI−1640 media within 24 hours. Cells were then incubated in B27+/RPMI−1640 without supplement for at least 72 hours. PrestoBlue was diluted in a ratio of 1:10 in B27+/RPMI−1640 media and incubated with the cells at 37° C. for 30 minutes. After incubation, fluorescence reading was performed at excitation and emission wavelengths of 530 nm and 590 nm, respectively, using the Synergy HTX Multi-Mode microplate reader (Agilent Technologies, Inc., USA).
Six logarithmic concentrations of GDF15 were initially used to identify the optimal dose for cytoprotection: 0.1 ng/ml, 1 ng/ml, 10 ng/ml, 100 ng/ml, 1,000 ng/ml (1 ug/ml), and 10,000 ng/ml (10 ug/ml). Further refinement of dose response was subsequently achieved using concentrations at 100 ng/ml, 200 ng/ml, and 300 ng/ml. The optimal time point (see below) of 24 hours was selected. Doxorubicin at 1.5 μM was used to induce cytotoxicity.
hESC-CMs were pretreated with GDF15 for 1 hour, 6 hours, 24 hours, 48 hours, or 72 hours (“pretreatment”), followed by exposure to 1.5 μM doxorubicin alone for a further 24 hours. A second set of experiments involved pretreatment of hESC-CMs for 1 hour, 6 hours, 24 hours, 48 hours, or 72 hours, followed by removal of the media containing GDF15, and coincubation of hESC-CMs with both GDF15 and doxorubicin for another 24h (“pre/co-treatment”). The efficacy of GDF15 in protecting cardiomyocytes was assessed by cell viability analysis using PrestoBlue.

[4] = system: hESC-CMs; assay: Mitochondrial membrane potential (TMRE); type: cell-based, human
Experimental: Mitochondrial membrane potential (MMP) as a measure of mitochondrial function and viability was assessed using tetramethylrhodamine ethyl ester (TMRE) (Thermo Fisher Scientific, USA), a cell-permeant cationic fluorescent dye that is readily taken up by viable mitochondria. hESC-CMs seeded at 15,000 cells per well on a 96-well flat-bottom microtiter plate were cultured at 37° C. in a humidified 5% CO2 atmosphere for at least 3 days before MMP measurement. TMRE dye was applied at 50 nM for 20 minutes in B27+/RPMI−1640 media, followed by fluorescence reading at excitation and emission wavelengths of 485 nm and 528 nm, respectively, using the Synergy HTX Multi-Mode microplate reader.

[5] = hESC-CMs, pretreatment in the presence of Dox

COc1cccc2c1C(=O)c1c(O)c3c(c(O)c1C2=O)C[C@@](O)(C(=O)CO)C[C@@H]3OC1C[C@H](N)[C@H](O)[C@H](C)O1.Cl (stereo partly drawn) [Dox, (8S,10S)-10-[(3-Amino-2,3,6-trideoxy-L-lyxohexopyranosyl)oxy]-7,8,9,10-tetrahydro-6,8,11-trihydroxy-8-(hydroxyacetyl)-1-methoxynaphthacene-5,12-dione hydrochloride, reference compound]
hazard ratio for developing heart failure [1]: 8.6
heart weight-to-tibia length ratio [2]: decrease

GDF15: commercially available recombinant human GDF-15 protein (PeproTech 120-28C), CHO cell-derived, SEQ ID NO: 1
cytoprotective effects after priming, pre/co-treatment ([3]; hESC-CMs primed with GDF15 for 24 hours, then coincubation with GDF15 and doxorubicin 24 h): cytoprotective effects persisted
optimal timing of pretreatment prior to doxorubicin ([3]; hESC-CMs): 24 h
optimal timing of pretreatment prior to doxorubicin ([3]; hESC-CMs, listed as recombinant GDF15): approximately 24 hours
cell viability (positive PrestoBlue staining) ([3]; hESC-CMs, GDF15 pretreatment for 24 hours before doxorubicin 1.5 μM): increased cell viability
cell viability compared with dexrazoxane [3, 5]: slightly higher percentage of cell viability
mitochondrial membrane potential and function (TMRE) ([4]; 300 ng/ml GDF15 pretreatment, hESC-CMs exposed to doxorubicin): better preserved than at other concentrations
mitochondrial membrane potential compared with dexrazoxane [4, 5]: performed similarly to dexrazoxane
